According to US6544931B1, “Substituted heteroaryloxyacetanilides and their use as herbicides” (Bayer Aktiengesellschaft, priority 1999, dated 2003):
Like-named read-outs stand apart in the source and are kept apart here.

Columns and labels:
[1] = tested on: weeds; experiment: Pre-emergence test; format: in vivo; details: result in words
Protocol: (§1) Solvent: 5 parts by weight of acetone
(§2) Emulsifier: 1 part by weight of alkylaryl polyglycol ether
(§3) To produce a suitable preparation of active compound, 1 part by weight of active compound is mixed with the stated amount of solvent, the stated amount of emulsifier is added and the concentrate is diluted with water to the desired concentration.
(§4) Seeds of the test plants are sown in normal soil. After about 24 hours, the soil is sprayed with the preparation of active compound such that the particular amount of active compound desired is applied per unit area. The concentration of the spray liquor is chosen so that the particular amount of active compound desired is applied in 1000 litre of water per hectare.
(§5) After three weeks, the degree of damage to the plants is rated in % damage in comparison to the development of the untreated controls.
(§6) 0%=no effect (like untreated control)

[2] = tested on: Alopecurus; experiment: Pre-emergence test/greenhouse; format: in vivo; details: 500 g of ai/ha, after three weeks
Protocol: as §1, §2, §3, §4, §5, §6

[3] = tested on: Avena fatua; experiment: Pre-emergence test/greenhouse; format: in vivo; details: 500 g of ai/ha, after three weeks
Protocol: as §1, §2, §3, §4, §5, §6

[4] = tested on: Maize; experiment: Pre-emergence test/greenhouse; format: in vivo; details: after three weeks, crop plant
Protocol: as §1, §2, §3, §4, §5, §6

[5] = tested on: Setaria; experiment: Pre-emergence test/greenhouse; format: in vivo; details: after three weeks
Protocol: as §1, §2, §3, §4, §5, §6

[6] = tested on: Echinochloa; experiment: Pre-emergence test/greenhouse; format: in vivo; details: 500 g of ai/ha, after three weeks
Protocol: as §1, §2, §3, §4, §5, §6

[7] = tested on: Avena fatua; experiment: Post-emergence test/greenhouse; format: in vivo; details: 500 g of ai/ha, after three weeks
Protocol: as §1, §2, §3
(§7) Test plants which have a height of 5 to 15 cm are sprayed with the preparation of active compound such that the particular amounts of active compound desired are applied per unit area. The concentration of the spray liquor is chosen so that the particular amounts of active compound desired are applied in 1000 l of water/ha.
(§8) After three weeks, the degree of damage to the plants is rated in % damage in comparison to the development of the untreated control.
as §6

[8] = tested on: Ipomoea; experiment: Post-emergence test/greenhouse; format: in vivo; details: 500 g of ai/ha, after three weeks
Protocol: as §1, §2, §3, §7, §8, §6

[9] = tested on: Setaria; experiment: Post-emergence test/greenhouse; format: in vivo; details: after three weeks
Protocol: as §1, §2, §3, §7, §8, §6

[10] = tested on: Galium; experiment: Post-emergence test/greenhouse; format: in vivo; details: after three weeks
Protocol: as §1, §2, §3, §7, §8, §6

[11] = tested on: weeds; experiment: Post-emergence test; format: in vivo; details: result in words
Protocol: as §1, §2, §3, §7, §8, §6

[12] = logP by HPLC on reversed-phase column (EEC directive 79/831 Annex V.A8); format: physicochemical
Protocol: The lopP values given in Table 1 were determined in accordance with EEC directive 79/831 Annex V.A8 by HPLC (High Performance Liquid Chromatography) on a reversed-phase column (C 18). Temperature: 43° C. (a) Mobile phases for the determination in the acidic range: 0.1% aqueous phosphoric acid, acetonitrile; linear gradient of 10% acetonitrile to 90% acetonitrile—corresponding data in Table 1 are labelled a). Calibration was carried out using unbranched alkan-2-ones (with 3 to 16 carbon atoms) whose logP values are known (determination of the logP values by the retention times using linear interpolation between two successive alkanones).

[13] = tested on: Amaranthus; experiment: Pre-emergence test/greenhouse; format: in vivo; details: after three weeks
Protocol: as §1, §2, §3, §4, §5, §6

[14] = tested on: Eriochloa; experiment: Pre-emergence test/greenhouse; format: in vivo; details: 500 g of ai/ha, after three weeks
Protocol: as §1, §2, §3, §4, §5, §6

[15] = tested on: Lolium; experiment: Pre-emergence test/greenhouse; format: in vivo; details: 500 g of ai/ha, after three weeks
Protocol: as §1, §2, §3, §4, §5, §6

[16] = tested on: Cotton; experiment: Pre-emergence test/greenhouse; format: in vivo; details: 500 g of ai/ha, after three weeks, crop plant
Protocol: as §1, §2, §3, §4, §5, §6

[17] = tested on: Amaranthus; experiment: Post-emergence test/greenhouse; format: in vivo; details: after three weeks
Protocol: as §1, §2, §3, §7, §8, §6

[18] = tested on: Sinapis; experiment: Post-emergence test/greenhouse; format: in vivo; details: after three weeks
Protocol: as §1, §2, §3, §7, §8, §6

[19] = tested on: Matricaria; experiment: Pre-emergence test/greenhouse; format: in vivo; details: 125 g of ai/ha, after three weeks
Protocol: as §1, §2, §3, §4, §5, §6

[20] = tested on: Veronica; experiment: Pre-emergence test/greenhouse; format: in vivo; details: 125 g of ai/ha, after three weeks
Protocol: as §1, §2, §3, §4, §5, §6

[21] = tested on: Sinapis; experiment: Pre-emergence test/greenhouse; format: in vivo; details: 500 g of ai/ha, after three weeks
Protocol: as §1, §2, §3, §4, §5, §6

[22] = tested on: Digitaria; experiment: Pre-emergence test/greenhouse; format: in vivo; details: 500 g of ai/ha, after three weeks
Protocol: as §1, §2, §3, §4, §5, §6

[23] = tested on: Wheat; experiment: Pre-emergence test/greenhouse; format: in vivo; details: 500 g of ai/ha, after three weeks, crop plant
Protocol: as §1, §2, §3, §4, §5, §6

[24] = tested on: Sugar beet; experiment: Pre-emergence test/greenhouse; format: in vivo; details: 500 g of ai/ha, after three weeks, crop plant
Protocol: as §1, §2, §3, §4, §5, §6

[25] = reversed-phase HPLC column (C 18); a) acidic range: 0.1% aqueous phosphoric acid, acetonitrile gradient, HPLC C 18, 43° C., read-out: logP

CC(C)(C)N(C(=O)COc1nnc(C(F)(F)F)s1)c1ccc(Cl)cc1 [Example 1, N-(t-butyl)-N-(4-chlorophenyl)-2-(5-trifluoromethyl-1,3,4-thiadiazol-2-yl-oxy)-acetamide]
activity against weeds [1]: strong activity | melting point: 82 °C | degree of damage, Alopecurus [2]: 80% | degree of damage, Avena fatua [3]: 80% | degree of damage, Maize ([4]; 500 g of ai/ha): 0% | degree of damage, Setaria ([5]; 500 g of ai/ha): 100% | degree of damage, Echinochloa [6]: 95% | degree of damage, Avena fatua [7]: 80% | degree of damage, Ipomoea [8]: 90% | degree of damage, Setaria ([9]; 500 g of ai/ha): 90% | degree of damage, Galium ([10]; 500 g of ai/ha): 90% | activity against weeds [11]: strong activity

C#CCN(C(=O)COc1nnc(C(F)(F)F)s1)c1cccc(C(F)(F)F)c1 [Example 3]
chromatographic logP [12, 25]: 3.45 | activity against weeds [1]: strong activity | degree of damage, Maize ([4]; 500 g of ai/ha): 0% | degree of damage, Amaranthus ([13]; 500 g of ai/ha): 100% | degree of damage, Eriochloa [14]: 95% | degree of damage, Lolium [15]: 100% | degree of damage, Cotton [16]: 0% | degree of damage, Setaria ([5]; 500 g of ai/ha): 100% | degree of damage, Amaranthus ([17]; 2000 g of ai/ha): 100% | degree of damage, Sinapis ([18]; 2000 g of ai/ha): 100% | degree of damage, Setaria ([9]; 2000 g of ai/ha): 95% | degree of damage, Galium ([10]; 2000 g of ai/ha): 90% | activity against weeds [11]: strong activity

C#CCN(C(=O)COc1nnc(C(F)(F)F)s1)c1ccc(F)cc1 [Example 4]
chromatographic logP [12, 25]: 2.97 | activity against weeds [1]: strong activity | degree of damage, Maize ([4]; 125 g of ai/ha): 0% | degree of damage, Matricaria [19]: 100% | degree of damage, Amaranthus ([13]; 125 g of ai/ha): 100% | degree of damage, Veronica [20]: 100% | degree of damage, Setaria ([5]; 125 g of ai/ha): 100% | degree of damage, Amaranthus ([17]; 2000 g of ai/ha): 95% | degree of damage, Sinapis ([18]; 2000 g of ai/ha): 95% | degree of damage, Setaria ([9]; 2000 g of ai/ha): 90% | degree of damage, Galium ([10]; 2000 g of ai/ha): 90% | activity against weeds [11]: strong activity

C#CCN(C(=O)COc1nc2ccccc2o1)c1ccc(F)cc1 [Example 6]
activity against weeds [1]: strong activity | melting point: 138 °C | degree of damage, Amaranthus ([13]; 500 g of ai/ha): 100% | degree of damage, Sinapis [21]: 95% | degree of damage, Setaria ([5]; 500 g of ai/ha): 100% | degree of damage, Amaranthus ([17]; 500 g of ai/ha): 90% | degree of damage, Setaria ([9]; 500 g of ai/ha): 90% | degree of damage, Galium ([10]; 500 g of ai/ha): 90% | activity against weeds [11]: strong activity

CC(C)(C)N(C(=O)COc1nnc(C(F)(F)F)s1)c1ccc(F)cc1 [Example 7]
activity against weeds [1]: strong activity | melting point: 85 °C | degree of damage, Alopecurus [2]: 90% | degree of damage, Amaranthus ([13]; 500 g of ai/ha): 95% | degree of damage, Eriochloa [14]: 100% | degree of damage, Digitaria [22]: 100% | degree of damage, Wheat [23]: 0% | degree of damage, Setaria ([5]; 500 g of ai/ha): 100% | degree of damage, Amaranthus ([17]; 1000 g of ai/ha): 80% | degree of damage, Sinapis ([18]; 1000 g of ai/ha): 80% | degree of damage, Setaria ([9]; 1000 g of ai/ha): 80% | degree of damage, Galium ([10]; 1000 g of ai/ha): 95% | activity against weeds [11]: strong activity

CC(C)(C)N(C(=O)COc1nnc(C(F)(F)F)s1)c1cccc(Cl)c1 [Example 9]
activity against weeds [1]: strong activity | melting point: 84 °C | degree of damage, Sugar beet [24]: 0% | degree of damage, Maize ([4]; 500 g of ai/ha): 0% | degree of damage, Setaria ([5]; 500 g of ai/ha): 100% | degree of damage, Echinochloa [6]: 95% | degree of damage, Ipomoea [8]: 90% | degree of damage, Setaria ([9]; 500 g of ai/ha): 70% | degree of damage, Galium ([10]; 500 g of ai/ha): 90% | activity against weeds [11]: strong activity

CC(C)(C)N(C(=O)CO)c1ccc(Cl)cc1 [III-1, N-(t-butyl)-N-(4-chlorophenyl)-2-hydroxyacetamide]
chromatographic logP ([12]; reversed-phase HPLC column (C 18), pH=2.3, read-out: logP (at pH=2.3)): 2.54

C#CCN(C(=O)CO)c1ccc(F)cc1 [III-2, N-(4-fluorophenyl)-N-(2-propinyl)-2-hydroxyacetamide]
melting point: 57 °C

CC(C)(C)N(C(=O)CCl)c1ccc(Cl)cc1 [IV-1, N-(t-butyl)-N-(4-chlorophenyl)-2-chloroacetamide]
chromatographic logP ([12]; reversed-phase HPLC column (C 18), pH=2.5, read-out: logP (at pH=2.5)): 3.34

C#CCN(C(=O)CCl)c1ccc(F)cc1 [IV-2, N-(4-fluorophenyl)-N-(2-propinyl)-2-chloroacetamide]
logP [12]: logP = 2.69^a)
